Measured values as given in publication PMC8924238, “Mapping the sequence specificity of heterotypic amyloid interactions enables the identification of aggregation modifiers” (Nature Communications, 2022).

Test system: HEK293 Tau^RD-P301S-CFP/YFP expressing biosensor cells
Test: FRET cellular transfection assay with protein constructs and tau seeds
Assay type: cell-based
Settings: for rise of induced tau aggregation in transfection-positive cells: compared to non-expressing and non-transfected cells, high seeding concentrations; for susceptibility to tau seeding at low seed concentrations: concentration-dependent quantification; for number of inclusions formed per cell: higher concentrations of tau seeds, compared to the controls
Method: HEK293 Tau^RD-P301S-CFP/YFP expressing biosensor cells[109] were purchased from ATCC and cultured in DMEM medium, supplemented with 10% FBS at 37 °C, and a 5% CO2 atmosphere. Gene constructs (Supplementary Methods) were generated and onboarded to a pTwist CMV expression vector by coupling double-tagged (N-terminal HA and C-terminal FLAG recognition sites) genes of interest to an mKO2 fluorescence reporter, separated by an IRES site to enable independent co-expression (Twist Biosciences). Due to restrictions imposed by the construct synthesis, for proteins longer than 500 residues we designed shorter domain-constructs containing the homologous sequences (Supplementary Table 2). Biosensor cells were plated in poly-L-lysine coated 96-well plates (PerkinElmer) at a density of 20000 cells/well. DNA transfection (100 ng) and tau seeds transfection was performed 6 h and 48 h later, respectively, using Lipofectamine 3000 according to the manufacturer guidelines. For seed transfections specifically, a volume of 4.8 μL of the seed sample, mixed with 0.2 μL of Reagent 3000, was added to a mixture of 0.3 μL of Lipofectamine 3000 with 4.7 μL of Opti-MEM medium. Cells were fixed with 4% formaldehyde 24 h after seeding. Fixed cells were stained with DAPI (Thermofisher, D1306) following the manufacturer protocol. For immunofluorescence staining, primary antibody staining at 1:1000 dilution was performed in 1% BSA with an HA-tag (C29F4) Rabbit mAb (Cell Signalling, #3724), followed by secondary staining with an Alexa Fluor 647 goat anti-rabbit antibody (ThermoFisher, A-21245) at 1:1000 dilution in 1% BSA for 1 h. Three individual plate preparations were performed for each construct gradient as independent experiments (n = 3). High-content screening was performed at the VIB Screening Core/C-BIOS, using an Opera Phenix HCS (PerkinElmer) equipped with proper filter channels to track tau aggregation through FRET (Ex:405, Em:550), construct colocalization through HA staining (Ex:647, Em:667) and DAPI staining (Ex:405 Em:430). Image storage and segmentation analysis was performed using the Columbus Plus digital platform (PerkinElmer). Quantification of colocalization was performed using Coloc2 in ImageJ.

| Molecule | rise of induced tau aggregation in transfection-positive cells | susceptibility to tau seeding at low seed concentrations | number of inclusions formed per cell |
| --- | --- | --- | --- |
| IDE: insulin degrading enzyme, transiently expressed construct with homology to PHF6 | 30% | vulnerable to tau seeding even at picomolar concentrations | doubling or higher effect |
| DOCK3: dedicator of cytokinesis, transiently expressed construct | 30% |  |  |
| SNTG1: Synaptotagmin-1 (SNTG1) as worded, transiently expressed construct (protein, UniProt Q9NSN8 1-517, looked up) Gamma-1-syntrophin: MDFRTACEETKTGICLLQDGNQEPFKVRLHLAKDILMIQEQDVICVSGEPFYSGERTVTIRRQTVGGFGLSIKGGAEHNIPVVVSKISKEQRAELSGLLFIGDAILQINGINVRKCRHEEVVQVLRNAGEEVTLTVSFLKRAPAFLKLPLNEDCACAPSDQSSGTSSPLCDSGLHLNYHPNNTDTLSCSSWPTSPGLRWEKRWCDLRLIPLLHSRFSQYVPGTDLSRQNAFQVIAVDGVCTGIIQCLSAEDCVDWLQAIATNISNLTKHNIKKINRNFPVNQQIVYMGWCEAREQDPLQDRVYSPTFLALRGSCLYKFLAPPVTTWDWTRAEKTFSVYEIMCKILKDSDLLDRRKQCFTVQSESGEDLYFSVELESDLAQWERAFQTATFLEVERIQCKTYACVLESHLMGLTIDFSTGFICFDAATKAVLWRYKFSQLKGSSDDGKSKIKFLFQNPDTKQIEAKELEFSNLFAVLHCIHSFFAAKVACLDPLFLGNQATASTAASSATTSKAKYTT |  |  | doubling or higher effect |
| TRA2B: Transformer-2 homolog beta, transiently expressed construct (protein, UniProt P62995 2-288, looked up) Transformer-2 protein homolog …: SDSGEQNYGERESRSASRSGSAHGSGKSARHTPARSRSKEDSRRSRSKSRSRSESRSRSRRSSRRHYTRSRSRSRSHRRSRSRSYSRDYRRRHSHSHSPMSTRRRHVGNRANPDPNCCLGVFGLSLYTTERDLREVFSKYGPIADVSIVYDQQSRRSRGFAFVYFENVDDAKEAKERANGMELDGRRIRVDFSITKRPHTPTPGIYMGRPTYGSSRRRDYYDRGYDRGYDDRDYYSRSYRGGGGGGGGWRAAQDRDQIYRRRSPSPYYSRGGYRSRSRSRSYSPRRY | 30% | vulnerable to tau seeding even at picomolar concentrations | doubling or higher effect |
